Test results reported in patent publication US7968575B2, “Nitric oxide donors and uses thereof” (priority 2004, dated 2011).
“Also recorded” adds a separate entry of the source.

Assays:
[1] = test system: c-GMP; test: Cyclic-GMP measurement in aortic rat tissue (radioimmunoassay); format: cell-based; conditions: isolated rat aorta, FIGS. 25, 27 and 33; in words
Description: GTN (10^−6 M) was added to the chamber and, 1 minute after exposure to the drug, rings (usually 3-5) were taken, wrapped with aluminum foil and immediately frozen in liquid nitrogen for storage. Control sample group was treated with the vehicle solution only. At the time of analysis, rings were thawed, blotted over a dry gauzed and weighted. A known weight of tissue was homogenized in 2 ml ice-cold modified Hank's balanced salt solution containing (in gram/liter) NaCl 8; KCl 0.4; glucose 1; KH2PO4 0.06; Na2HPO4 0.047; Phenol red 0.017 and further containing 25 mM EDTA (disodium salt). The homogenate was centrifuged at 4000 g (force units) for 10 minutes at 2-4° C. and the supernatant was thereafter transferred into fresh pre-cooled test tube containing 1 ml of acetonitrile. The tubes were vortex mixed for a few seconds and subsequently centrifuged at 4000 g for 5 minutes at 2-4° C., to remove the precipitated protein. Each supernatant was transferred into a clean test tube and evaporated to dryness under a stream of nitrogen at 55° C. The dry residue was reconstituted with 10 volumes of Tris-EDTA buffer pH 7.5 (0.05 M Tris containing 4 mM EDTA). Aliquots of 100 μl of the reconstituted solution in duplicate were used for c-GMP measurements using Amersham RIA kit, as is described in Haj-Yehia & Benet [Pharmacology, 1995, 273, 1, pp. 94-100]. Standard curves were plotted with six concentrations (0, 0.5, 1, 2, 4 and 8 pmoles of c-GMP per tube).
The NO-tolerance effect of GTN and NO-donor compounds according to the present invention was measured by following the production of c-GMP in slices of thoracic aorta of rats. Thus, the production of c-GMP was measured as described in the methods section above for the reference NO-donor compound GTN, and for the NO-donors of the present invention Pet-2, Pet-3, Pet-7, Pet-8, Pet-10, Pet-12, Pet-24, Pet-59, Pet-147, Pet-149, Pet-152, Pet-154 and Pet-155.

[2] = test system: isolated rat aorta; test: In vitro vasorelaxation of epinephrine-contracted rat aortic rings (cumulative concentration-response curves); format: cell-based; conditions: isolated rat aorta pre-treated in vitro with 1 μM epinephrine; in words
Excerpt: Male Sprague Dawley rats were anaesthetized using intraperitoneal injection of ketamine and xylazine (50 and 10 milligram per kilogram, respectively) and the thoracic aorta, the large upper portion of the descending aorta, starting at the caudal border of the chest bone, was removed thereafter, while carefully removing the paraadventetial tissue surrounding the vessel. Aortae were cut into rings of 4-5 millimeters and mounted onto the tissue path. The path buffer (Krebs-bicrbonate) was constantly gassed with carbogen and maintained at 37° C. The rings were preloaded under 2 g tension and equilibrated for 90 minutes, while refreshing the buffer every 15 minutes. After stabilization, the rings were contracted with epinephrine (1 μM). Cumulative Concentration-Response Curves (CCRC) were measured for the vasorelaxing effect induced by adding various concentrations, ranging from 10^−10 M to 10^−5 M of Pet-2, Pet-3, Pet-7, Pet-8, Pet-12, Pet-24, Pet-43, Pet-59, Pet-147, Pet-152 and Pet-154, and glyceryltrinitrate (GTN), according to the procedure described in Feelich et al., Molecular Pharmacology, 56:243-253 (1999). The vehicle, which was used for this experiment was water:ethanol:propyleneglycol at proportional ratio of 1:1:1.
The vasorelaxing effect of the thiazole-derived NO-donors according to the present invention was measured on slices of thoracic aorta of rats contracted with epinephrine, as described hereinabove.

[3] = test system: c-GMP; test: Induction of in vivo nitrate tolerance (cGMP in aorta isolated after 16 hour infusion); design: species or system rat; conditions: in words; for tolerance induction in vivo: cGMP accumulation in isolated aorta of rats pre-treated in vivo with the compound
Description: For c-GMP levels and tolerance development, the rat's thoracic aorta was isolated after exposure to the tested compound in vivo, and measured as described above in the in vitro assays.
Male Sprague Dawley rats (220 to 250 grams) were housed under constant temperature and humidity conditions. Light was maintained at a 12/12 light dark cycle. Except for 12 hours before the experiment, when food fasting was initiated, all rats had free access to standard rat pellet diet and tap water. The animals were anesthetized by intraperitoneal injection of ketamine and xylazine combination (50 and 10 milligram per kilogram, respectively). […] The catheters were filled with normal saline solution containing 1000 IU/ml of heparin and plugged with a metal pin. Catheters were externalized to the back of the neck region and secured by a polyester felt disk.
After implantation, the rats were individually housed until they regained their preoperative weight and appeared healthy (3 to 4 days post-operation). At this time point (day 0), an osmotic mini-pump (Alza Corp., Palo Alto, Calif.) delivering constant volume (10 μl/hour) of vehicle or drug was connected to one of the intravenous catheters.
For inducing tolerance to the tested NO-donor according to the present invention, the animals received 200 μg/hour of the tested compound for 16 hours (short-term-induced tolerance). A similar number of animals were processed by the same surgical procedure and received the vehicle alone (10 μl/hour of a solution consisting of 30% ethanol and 30% propylene glycol in sterile distilled water for injection).
At the end of the infusion periods used for the development of tolerance (16 hour), the rats were anesthetized as described above, the two catheters were externalized and the delivering catheters were disconnected from the mini-pump. The abdomen was opened by midline incision and the thoracic aorta were isolated, washed and cleaned from the surrounding tissues. Strips of the treated aortas were pooled in chambers containing Krebs-Hanseliet buffer (10 ml), and exposed to 1 μM of the tested NO-donor (final concentration) for 120 seconds. The tissues were quickly collected and frozen in liquid nitrogen for cGMP measurement, described hereinabove.

[4] = test system: isolated rat aorta; test: In vitro induction of tolerance: vasorelaxation of aortic rings pre-exposed to the NO-releasing compound; format: cell-based; conditions: vasorelaxation in rings pre-treated with 0.44 mM of the compound versus control rings; in words
Description: Aortic rings were prepared as described hereinabove, and were exposed to 0.44 mM GTN (vehicle was water:ethanol:propyleneglycol at proportional ratio of 1:1:1) for 1 hour before CCRC construction, to thereby induce tolerance to nitroglycerine. At the end of the tolerance induction period, rings were thrice washed with the path buffer (Krebs-bicrbonate) every 15 minutes for the following hour and then CCRC for vasorelaxation on GTN-induced tolerance rings were constructed for GTN (pretreated versus untreated rings, FIG. 15), in order to verify the ability to induce and measure GTN tolerance induction in vitro
Attempted induction of tolerance to the NO-donating compounds of the present invention was performed under the same conditions as for GTN. Thus, in an exemplary experiment, rings were exposed to 0.44 mM solution of Pet-3 in the attempt to induce tolerance for Pet-3. CCRC were then measured for the vasorelaxing effect of Pet-3 on a group of rings which were pre-exposed to Pet-3 as to induce tolerance to Pet-3, and for an untreated control group. The above protocol was repeated with Pet-2, Pet-7, Pet-8, Pet-12, Pet-24, Pet-43, Pet-149 and Pet-152.

[5] = test system: isolated rat aorta; test: Cross-tolerance studies on aortic rings (GTN / Pet-12 pre-treatment); format: cell-based; conditions: in words
Description: Cross-tolerance studies were conducted using the same technique described above for measuring vasorelaxation of aortic rings from rats. Two groups of aortic rings samples were pre-treated with GTN, then one group was measured for vasorelaxation by GTN and the second group for vasorelaxation by Pet-12, an exemplary NO-donor according to the present invention. For the opposite cross-tolerance studies, two groups of aortic rings samples were pre-treated with Pet-12, then one group was measured for vasorelaxation by GTN and the second group for vasorelaxation by Pet-12.

Cc1nc(NC(=O)[C@@H](C)c2ccc(CC(C)C)cc2)sc1CCO[N+](=O)[O-] (stereo in doubt) [Pet-152, 2-(4-Isobutyl-phenyl)-N-[4-methyl-5-(2-nitrooxy-ethyl)-thiazol-2-yl]-propionamide]
levels of cGMP as compared with GTN [1]: increased levels of cGMP
vasorelaxation effect as compared with glyceryltrinitrate [2]: superior

CCc1nc(C)c(CCO[N+](=O)[O-])s1 [Pet-2, 2-Ethyl-4-methyl-5-(2-nitrooxy-ethyl)-thiazole]
level of cGMP following a repeated treatment in vivo ([3]; aorta of rats infused 200 μg/hour for 16 hours, then exposed to 1 μM compound for 120 seconds): remained substantially unchanged
tolerance induction in vivo [3]: absence of tolerance induction; also recorded: absence of tolerance effect
vasorelaxation effect as compared with glyceryltrinitrate [2]: superior

Cc1nc(C)c(CCO[N+](=O)[O-])s1 [Pet-3, 2,4-Dimethyl-5-(2-nitrooxy-ethyl)-thiazole]
tolerance induction in vitro [4]: absence of tolerance induction
levels of cGMP as compared with GTN [1]: increased levels of cGMP
vasorelaxation effect as compared with glyceryltrinitrate [2]: superior

Cc1nc(N(C)C)sc1CCO[N+](=O)[O-] [Pet-7, Dimethyl-[4-methyl-5-(2-nitrooxy-ethyl)-thiazol-2-yl]-amine]
tolerance induction in vitro [4]: absence of tolerance induction
levels of cGMP as compared with GTN [1]: increased levels of cGMP

Cc1nc(-c2ccccc2)sc1CCO[N+](=O)[O-] [Pet-8, 4-Methyl-5-(2-nitrooxy-ethyl)-2-phenyl-thiazole]
levels of cGMP as compared with GTN [1]: increased levels of cGMP
vasorelaxation effect as compared with glyceryltrinitrate [2]: superior

Cc1nc(N)sc1CCO[N+](=O)[O-] [Pet-10, 4-methyl-5-(2-nitrooxy-ethyl)-thiazole-2-ylamine]
levels of cGMP as compared with GTN [1]: increased levels of cGMP

Cc1nc(-c2cccnc2)sc1CCO[N+](=O)[O-] [Pet-12, 3-[4-Methyl-5-(2-nitrooxy-ethyl)-thiazole-2-yl]-pyridine]
tolerance induction in vivo [3]: absence of tolerance induction; also recorded: absence of tolerance effect; also recorded: lack of tolerance induction
vasorelaxation in GTN-tolerant rings (cross-tolerance) ([5]; aortic rings pre-treated with epinephrine and then with GTN): absence of tolerance induction effect; also recorded: has no effect on the vasorelaxation capacity
tolerance after pre-treatment with Pet-12 (to itself and to GTN) ([5]; aortic rings pre-treated with epinephrine and then with Pet-12): absence of tolerance induction effect; also recorded: does not evoke tolerance to itself not to GTN
tolerance induction in vitro [4]: absence of tolerance induction

CNc1cncc(-c2nc(C)c(CCO[N+](=O)[O-])s2)n1 [Pet-24, Methyl-{6-[4-methyl-5-(2-nitrooxy-ethyl)-thiazol-2-yl]-pyrazin-2-yl}-amine]
tolerance induction in vitro [4]: absence of tolerance induction
levels of cGMP as compared with GTN [1]: increased levels of cGMP

Cc1nc(Nc2nc(C)c(CCO[N+](=O)[O-])s2)sc1CCO[N+](=O)[O-] [Pet-43, Bis-[4-methyl-5-(2-nitrooxy-ethyl)-thiazol-2-yl]-amine]
tolerance induction in vitro [4]: absence of tolerance induction
vasorelaxation effect as compared with glyceryltrinitrate [2]: superior

Cc1nc(-c2ccc(C(F)(F)F)cc2)sc1CCO[N+](=O)[O-] [Pet-59, 4-Methyl-5-(2-nitrooxy-ethyl)-2-(4-trifluoromethyl-phenyl)-thiazole]
levels of cGMP as compared with GTN [1]: increased levels of cGMP
vasorelaxation effect as compared with glyceryltrinitrate [2]: superior

CCNc1nc(C)c(CCO[N+](=O)[O-])s1 [Pet-147, Ethyl-[4-methyl-5-(2-nitrooxy-ethyl)-thiazol-2-yl]-amine]
levels of cGMP as compared with GTN [1]: increased levels of cGMP

Cc1nc(Nc2cccc3ccccc23)sc1CCO[N+](=O)[O-] [Pet-149, [4-Methyl-5-(2-nitrooxy-ethyl)-thiazol-2-yl]-naphthalen-1-yl-amine]
tolerance induction in vitro [4]: absence of tolerance induction
levels of cGMP as compared with GTN [1]: increased levels of cGMP
vasorelaxation effect as compared with glyceryltrinitrate [2]: superior

Cc1nc(NC(=O)c2cccnc2)sc1CCO[N+](=O)[O-] [Pet-154, N-[4-methyl-5-(2-nitrooxy-ethyl)-thiazol-2-yl]-nicotinamide]
levels of cGMP as compared with GTN [1]: increased levels of cGMP

C=CCNc1nc(C)c(CCO[N+](=O)[O-])s1 [Pet-155, allyl-[4-methyl-5-(2-nitrooxy-ethyl)-thiazol-2-yl]-amine]
levels of cGMP as compared with GTN [1]: increased levels of cGMP
vasorelaxation effect as compared with glyceryltrinitrate [2]: superior
